Patent US20100233145A1, “COMPOSITION USED AS A NUTRITIONAL SUPPLEMENT AND MEDICATION FOR THE TREATMENT OF DEGENERATIVE VISUAL DISORDERS AND INFLAMMATION” (APO PHARMACEUTICALS INTERNATIONAL B.V., priority 2006, published 2010)

System: retina explants from rd1 mice
Assay: in vitro organ culture of retina explants under serum-free conditions
Assay type: cell-based, mouse
Conditions: for Number of rows of photoreceptors average ± SD, (n): rd/rd retina explants, glutathione 3 μg/ml, ALA 2 μg/ml, zeaxanthin 0.3 μg/ml, lutein 0.3 μg/ml, control 1.5 ± 0.3
Protocol: The in vitro-experiments were performed on an organ culture of retina explants under serum-free conditions, as described in […], Ahuja P, Holmqvist B, Azadi […], van Veen T (2001) “Mouse retina explants after long-term culture in serum-free medium.”, J Chem Neuroanat 22: 263-273. The described technique was carried out on retina explants from rd1 mice as used in the in-vivo experiments. Retinas of rd1 mice were transferred at PN3 to an in vitro culture on flat nitrocellulose membranes and were kept in […] medium for 8 and 21 days, corresponding with the age PN11 and […] of the animals. All experiments were performed paired, wherein untreated retinas were compared to retinas which were exposed to a treatment. […] In order to achieve these concentrations the correct measured quantities of stock solution as described for the in vivo experiments were added to the medium. […] The rows of photoreceptors in the outer nuclear layer (ONL) were counted in 5 slices of each composition, wherein of each slice six different sections were analysed corresponding with the sections in the in vivo experiments. The differences between treated and untreated retinas were compared statistically with Student's paired t-test, or Student's unpaired t-test, wherein differences in which p<0.05 were deemed significant.

Structure (SMILES)	number of rows of photoreceptor cells, treated versus untreated explant (rd1 explant, FIGS. 6a and 6b)	Number of rows of photoreceptors average ± SD, (n)
N[C@@H](CCC(=O)N[C@@H](CS)C(=O)NCC(=O)O)C(=O)O [glutathione, L-glutathione]	almost the same	2.0 ± 0.9 (n-6) rows
O=C(O)CCCCC1CCSS1 (stereo not drawn) [alpha lipoic acid, thioctic acid]	–	1.8 ± 0.5 (n-6) rows
CC1=C(/C=C/C(C)=C/C=C/C(C)=C/C=C/C=C(C)/C=C/C=C(C)/C=C/C2=C(C)C[C@@H](O)CC2(C)C)C(C)(C)C[C@H](O)C1 [zeaxanthin, (3R, 3′R)-β,β-carotene-3,3′-diol]	–	1.9 ± 0.7 (n-6) rows
CC1=C[C@H](O)CC(C)(C)[C@H]1/C=C/C(C)=C/C=C/C(C)=C/C=C/C=C(C)/C=C/C=C(C)/C=C/C1=C(C)C[C@@H](O)CC1(C)C [Lutein, (3R, 3′R, 6′R)-(3,c-carotene-3,3′-diol]	–	2.0 ± 0.8 (n-6) rows
